Assay results taken from patent US20100016307A1, “NOVEL COMPOUNDS” (priority 2006, published 2010).

target: T1, c-Met/cFms chimeric receptor in c-Met/cFms/NIH3T3 cells (Homo sapiens, UniProt P08581); test: Cell-based assay for c-Met autophosphorylation (ELISA); conditions: compounds 1 h at 37° C., M-CSF (600 ng/ml) stimulation 10 min
T1 construct: The transmembrane/cytoplasmic domain fragment of c-Met (nucleotides 933 to 1390); expressed in transfected cells; the other entry of the earlier key: CSF1R (P07333, Macrophage colony-stimulating factor 1 receptor)
T1 sequence (P08581 with tags, fused parts or gaps): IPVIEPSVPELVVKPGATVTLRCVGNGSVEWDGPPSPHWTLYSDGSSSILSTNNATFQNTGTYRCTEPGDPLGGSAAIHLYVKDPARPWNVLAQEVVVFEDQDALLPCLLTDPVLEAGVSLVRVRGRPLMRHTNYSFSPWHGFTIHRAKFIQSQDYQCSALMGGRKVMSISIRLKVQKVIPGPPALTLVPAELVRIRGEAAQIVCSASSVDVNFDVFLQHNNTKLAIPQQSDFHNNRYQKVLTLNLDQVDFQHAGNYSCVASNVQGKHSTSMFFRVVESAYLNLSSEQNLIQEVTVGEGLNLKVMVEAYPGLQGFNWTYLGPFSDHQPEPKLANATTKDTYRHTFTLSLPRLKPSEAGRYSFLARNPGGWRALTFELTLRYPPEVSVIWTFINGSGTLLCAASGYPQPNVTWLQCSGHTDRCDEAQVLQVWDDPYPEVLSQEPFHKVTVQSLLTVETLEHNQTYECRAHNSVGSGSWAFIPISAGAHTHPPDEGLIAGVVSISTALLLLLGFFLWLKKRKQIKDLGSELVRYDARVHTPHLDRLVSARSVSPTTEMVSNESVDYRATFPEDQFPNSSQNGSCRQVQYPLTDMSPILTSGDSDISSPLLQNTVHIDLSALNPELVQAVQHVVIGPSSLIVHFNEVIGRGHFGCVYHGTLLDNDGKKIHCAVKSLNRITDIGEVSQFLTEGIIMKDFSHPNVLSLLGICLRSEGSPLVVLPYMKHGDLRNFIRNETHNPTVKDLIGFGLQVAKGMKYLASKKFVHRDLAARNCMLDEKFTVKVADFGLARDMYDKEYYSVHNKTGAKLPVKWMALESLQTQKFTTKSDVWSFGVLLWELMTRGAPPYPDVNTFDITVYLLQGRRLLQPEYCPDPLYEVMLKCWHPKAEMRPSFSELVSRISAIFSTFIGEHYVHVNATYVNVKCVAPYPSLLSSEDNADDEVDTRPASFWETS
Excerpt: To generate a chimeric cDNA clone of c-Met with cFms, the extracellular domain of colony stimulating factor 1 receptor (CSF1R encoded by cFms gene) was fused with the transmembrane and cytoplasmic domain of c-Met. Reverse-transcribed RNA from human placenta was used as template to clone c-Met. The transmembrane/cytoplasmic domain fragment of c-Met (nucleotides 933 to 1390) containing a NotI site at both 5′- and 3′-end was generated by polymerase chain reaction (PCR) using following two oligonucleotides;
The resulting c-Met cDNA was cloned into pCR2.1-TOPO vector (c-Met/pCR2.1-TOPO). The extracellular domain fragment of cFms (nucleotides 1 to 512) containing BamHI site at 5′-end and NotI site at 3′-end was generated from human placenta cDNA by PCR using two oligonucleotides;
The resulting cFms cDNA was cloned into pcDNA3.1 vector (Invitrogen) using the BamHI and NotI sites (cFms/pcDNA3.1). To generate complete chimeric construct, the c-Met fragment (transmembrane and cytoplasmic domain) was digested with NotI sites (in c-Met/pCR2.1-TOPO vector) and then subcloned into cFms/pcDNA3.1 vector by NotI site (c-Met/cFms/pcDNA3.1).
NIH3T3 cells were grown in DMEM supplemented with 10% fetal bovine serum. NIH3T3 cells were transfected with c-Met/cFms/pcDNA3.1 vector alone using the calcium phosphate method according to the manufacturer's instructions. Three days after transfection, cells were selected with G418 (0.4 mgml^−1) for 14 days and the expression of c-Met chimeric receptor in the G418-resistant colonies of NIH3T3 (c-Met/cFms/NIH3T3) cells was analyzed by immunoblot. Autophosphorylation of c-Met induced by the stimulation with M-SCF, the ligand for CSF1R, was analyzed by immunoprecipitation and immunoblot, and prominent stable transfectant was selected for c-Met autophosphorylation assay. […]
c-Met/cFms/NIH3T3 cells were plated at 1×10^5 cells/well in collagen-coated 96-well microtitre plates and grown 24 h under standard culture conditions, followed by serum starvation for 1 h. The cells were incubated with compounds for 1 h at 37° C. and followed by M-CSF (600 ngml^−1) stimulation for 10 min at 37° C. The media was removed and the cells were lysed with 120 ul/well of lysis buffer (20 mM Tris-HCl pH8.0, 137 mM NaCl, 2 mM EDTA, 10% glycerol, 1% Triton X-100, 1 mM Na3VO4 and Protease Inhibitor Cocktail (Complete mini EDTA-free, Roche)). Then 100 ul/well of lysate was transferred to the antibody-coated (50 ng/well goat anti-cFms antibody in PBS) ELISA plate and incubated overnight at 4° C. Plates were washed five times with PBST (PBS containing 0.05% Tween-20). Primary antibody (biotin-conjugated anti-phosphotyrosine monoclonal antibody, PIERCE) was diluted 1:10,000 in PBST containing 1% BSA, added (100 ul/well) and incubated for 2 h at room temperature. After washing the plates five times with washing buffer, 100 ul/well of HRP-conjugated streptavidin (PIERCE) in PBST containing 1% BSA was added and incubated for 30 min at room temperature. After washing five times with PBST, 100 ul/well of SuperSignal ELISA Femto Substrate (PIERCE) was added and incubated for almost 1 min at room temperature. Chemiluminescence was measured using Wallac 1420 multilabel counter.
The IC50 was determined by using XLfit software (IDBS) with four-parameters, sigmoidal dose-response equation.

Structure (SMILES) | IC50 [µM]
CN(C)c1ccc(CNC(=O)c2cc3c(Oc4ccc(NC(=O)C5(C(=O)Nc6ccc(F)cc6)CC5)cc4)ccnc3[nH]2)cc1 [Example 11, N^1-[4-({2-[({[4-(Dimethylamino)phenyl]methyl}amino)carbonyl]-1H-pyrrolo[2,3-b]pyridin-4-yl}oxy)phenyl]-N^1-(4-fluorophenyl)-1,1-cyclopropane dicarboxamide] | 1 to 3.16
COc1ccccc1CNC(=O)c1cc2c(Oc3ccc(NC(=O)C4(C(=O)Nc5ccc(F)cc5)CC4)cc3)ccnc2[nH]1 [Example 12, N^1-(4-Fluorophenyl)-N^1-[4-({2-[({[2-(methyloxy)phenyl]methyl}amino)carbonyl]-1H-pyrrolo[2,3-b]pyridin-4-yl}oxy)phenyl]-1,1-cyclopropane dicarboxamide] | 1 to 3.16
O=C(NCCN1CCNCC1)c1cc2c(Oc3ccc(NC(=O)C4(C(=O)Nc5ccc(F)cc5)CC4)cc3)ccnc2[nH]1 [Example 3, N^1-(4-Fluorophenyl)-N^1-(4-{[2-({[2-(1-piperazinyl)ethyl]amino}carbonyl)-1H-pyrrolo[2,3-b]pyridin-4-yl]oxy}phenyl)-1,1-cyclopropane dicarboxamide] | 1 to 3.16
COc1ccccc1NC(=O)c1cc2c(Oc3ccc(NC(=O)C4(C(=O)Nc5ccc(F)cc5)CC4)cc3)ccnc2[nH]1 [Example 13, N^1-(4-Fluorophenyl)-N^1-(4-{[2-({[2-(methyloxy)phenyl]amino}carbonyl)-1H-pyrrolo[2,3-b]pyridin-4-yl]oxy}phenyl)-1,1-cyclopropane dicarboxamide] | 3.16 to 31.6

Second part, the compound after the results:

IC50 [µM] | Structure (SMILES)
3.16 to 31.6 | CS(=O)(=O)CCNC(=O)c1cc2c(Nc3ccc(NC(=O)C4(C(=O)Nc5ccc(F)cc5)CC4)cc3)ccnc2[nH]1 [Example 21, N^1-(4-Fluorophenyl)-N^1-(4-{[2-({[2-(methylsulfonyl)ethyl]amino}carbonyl)-1H-pyrrolo[2,3-b]pyridin-4-yl]amino}phenyl)-1,1-cyclopropane dicarboxamide]
3.16 to 31.6 | O=C(NCCc1c[nH]cn1)c1cc2c(Nc3ccc(NC(=O)C4(C(=O)Nc5ccc(F)cc5)CC4)cc3)ccnc2[nH]1 [Example 20, N^1-(4-Fluorophenyl)-N^1-(4-{[2-({[2-(1H-imidazol-4-yl)ethyl]amino}carbonyl)-1H-pyrrolo[2,3-b]pyridin-4-yl]amino}phenyl)-1,1-cyclopropane dicarboxamide]
3.16 to 31.6 | O=C(Nc1ccc(F)cc1)C1(C(=O)Nc2ccc(Nc3ccnc4[nH]c(-c5ccccc5)cc34)cc2)CC1 [Example 22, N^1-(4-Fluorophenyl)-N^1-{4-[(2-phenyl-1H-pyrrolo[2,3-b]pyridin-4-yl)amino]phenyl}-1,1-cyclopropanedicarboxamide]
1 to 3.16 | CCOC(=O)c1cc2c(Nc3ccc(NC(=O)C4(C(=O)Nc5ccc(F)cc5)CC4)cc3)ccnc2[nH]1 [Example 17, Ethyl 4-[(4-{[(1-{[(4-fluorophenyl)amino]carbonyl}cyclopropyl)carbonyl]amino}phenyl)amino]-1H-pyrrolo[2,3-b]pyridine-2-carboxylate]
1 to 3.16 | O=C(NCCN1CCOCC1)c1cc2c(Nc3ccc(NC(=O)C4(C(=O)Nc5ccc(F)cc5)CC4)cc3)ccnc2[nH]1 [Example 19, N^1-(4-Fluorophenyl)-N^1-(4-{[2-({[2-(4-morpholinyl)ethyl]amino}carbonyl)-1H-pyrrolo[2,3-b]pyridin-4-yl]amino}phenyl)-1,1-cyclopropane dicarboxamide]

target: T2, human Met Kinase (His6-GST fusion, aa 956-1390) (Homo sapiens, UniProt P08581); test: In vitro screen: kinase assay of purified Met kinase; assay type: biochemical; conditions: purified Met 1 nM, 10 μM ATP, 1 μM peptide substrate, 1 hour at room temperature; read-out: pIC50 values at the c-Met receptor (in vitro screen results) (converted)
T2 construct: His6 (N); GST (Glutathione-S-Transferase) (N); made in house; host or cells: baculovirus expression system in Sf9 cells
T2 sequence (P08581 956-1390): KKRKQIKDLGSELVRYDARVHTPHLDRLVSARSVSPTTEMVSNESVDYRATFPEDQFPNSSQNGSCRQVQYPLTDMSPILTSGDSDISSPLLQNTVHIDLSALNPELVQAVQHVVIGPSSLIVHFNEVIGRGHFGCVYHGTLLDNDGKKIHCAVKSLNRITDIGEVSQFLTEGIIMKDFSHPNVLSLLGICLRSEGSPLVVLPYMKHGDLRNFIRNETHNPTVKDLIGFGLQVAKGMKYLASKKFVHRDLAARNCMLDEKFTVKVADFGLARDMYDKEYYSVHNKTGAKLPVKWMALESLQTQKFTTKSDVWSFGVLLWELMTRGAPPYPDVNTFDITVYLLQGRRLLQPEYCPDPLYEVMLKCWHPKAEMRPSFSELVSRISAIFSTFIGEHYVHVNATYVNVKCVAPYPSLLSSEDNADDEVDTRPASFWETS
Procedure: The peptide substrate, Biotin-aminohexyl-EEEEYFELVAKKKK-amide was purchased from SynPep Solid sample is dissolved at approximately 2.5 mM in water (concentration determined by amino acid analysis) and aliquots stored at −20° C.
Met Kinase: A fusion protein consisting of His6-tagged Glutathione-S-Transferase (GST) and amino acid residues 956-1390 of human Met Kinase (aa 956-1390 of Entrez Protein Accession # EAL24359.1 (met proto-oncogene (hepatocyte growth factor receptor) [Homo sapiens])) from “www.ncbi.nlm.nih.gov/entrez/”) is purified from baculovirus expression system in Sf9 cells using Ni chelate column, GSH column, followed by size exclusion chromatography. Purity greater than 90%, estimated by SDS-PAGE, is achieved. Samples in 25 mM HEPES pH 7.5, 100 mM NaCl, 0.1 mM EDTA are stored at −80° C. until use.
Assays are performed in 96 well (Costar, Catalog No. 3789) or 384 well plates (Costar, Catalog No. 3705). Assay conditions for the peptide phosphorylation reaction (in 10, 20, 25, or 40 μl volume) mix are 100 mM Hepes buffer, pH 7.4; 0.1 mgml^−1 BSA; 5 mM MgCl2; 1 mM DTT; 10 μM ATP; purified Met (1 nM final); and 1 μM peptide substrate. Compounds, titrated in DMSO, are evaluated at concentrations ranging from 50 μM to 0.2 nM. […] Reactions are incubated for 1 hour at room temperature and are stopped by addition of detection reagents containing, at final detection volume, 12.5 mM EDTA; 100 mM Hepes; 0.1 mg/ml BSA; 8 nM Streptavidin APC (Perkin Elmer catalog #CR130-150); 1 nM Europium-labelled anti-phosphotyrosine antibody (Perkin Elmer catalog #AD0067). Under the assay conditions defined above, the Km (apparent) for ATP is determined to be 40 μM.
The data for compound dose responses were plotted as % Inhibition, calculated with the data reduction formula 100*(1−[(U1−C2)/(C1−C2)]), versus concentration of compound, where U is the unknown value, C1 is the average control value obtained for DMSO, and C2 is the average control value obtained for 0.05M EDTA. Data were fitted to the curve described by: y=((Vmax*x)/(K+x)) where Vmax is the upper asymptote and K is the IC50. The results for each compound were recorded as pIC50 calculated as follows: pIC50=−Log 10(K).

Structure (SMILES) | IC50 [nM]
O=C(NCCN1CCOCC1)c1cc2c(Oc3ccc(NC(=O)C4(C(=O)Nc5ccc(F)cc5)CC4)cc3)ccnc2[nH]1 [Example 4, N^1-(4-Fluorophenyl)-N^1-(4-{[2-({[2-(4-morpholinyl)ethyl]amino}carbonyl)-1H-pyrrolo[2,3-b]pyridin-4-yl]oxy}phenyl)-1,1-cyclopropane dicarboxamide] | < 10
CN(C)CCCNC(=O)c1cc2c(Oc3ccc(NC(=O)C4(C(=O)Nc5ccc(F)cc5)CC4)cc3)ccnc2[nH]1 [Example 5, N^1-(4-{[2-({[3-(Dimethylamino)propyl]amino}carbonyl)-1H-pyrrolo[2,3-b]pyridin-4-yl]oxy}phenyl)-N^1-(4-fluorophenyl)-1,1-cyclopropane dicarboxamide] | < 10
NC(=O)CNC(=O)c1cc2c(Oc3ccc(NC(=O)C4(C(=O)Nc5ccc(F)cc5)CC4)cc3)ccnc2[nH]1 [Example 8, N^1-{4-[(2-{[(2-Amino-2-oxoethyl)amino]carbonyl}-1H-pyrrolo[2,3-b]pyridin-4-yl)oxy]phenyl}-N^1-(4-fluorophenyl)-1,1-cyclopropanedicarboxamide] | < 10

Other lines, results leading:

IC50 [nM] | Structure (SMILES)
< 10 | O=C(NCCc1c[nH]cn1)c1cc2c(Oc3ccc(NC(=O)C4(C(=O)Nc5ccc(F)cc5)CC4)cc3)ccnc2[nH]1 [Example 9]
< 10 | CS(=O)(=O)CCNC(=O)c1cc2c(Oc3ccc(NC(=O)C4(C(=O)Nc5ccc(F)cc5)CC4)cc3)ccnc2[nH]1 [Example 1, N^1-(4-Fluorophenyl)-N^1-(4-{[2-({[2-(methylsulfonyl)ethyl]amino}carbonyl)-1H-pyrrolo[2,3-b]pyridin-4-yl]oxy}phenyl)-1,1-cyclopropane dicarboxamide]
100 to 1000 | O=C(Nc1ccc(F)cc1)C1(C(=O)Nc2ccc(Nc3ccnc4[nH]ccc34)cc2)CC1 [Example 15, N^1-(4-Fluorophenyl)-N^1-[4-(1H-pyrrolo[2,3-b]pyridin-4-ylamino)phenyl]-1,1-cyclopropanedicarboxamide]
< 10 | O=C(NCCO)c1cc2c(Oc3ccc(NC(=O)C4(C(=O)Nc5ccc(F)cc5)CC4)cc3)ccnc2[nH]1 [Example 7, N^1-(4-Fluorophenyl)-N^1-{4-[(2-{[(2-hydroxyethyl)amino]carbonyl}-1H-pyrrolo[2,3-b]pyridin-4-yl)oxy]phenyl}-1,1-cyclopropanedicarboxamide]
